Experimental data reported in patent US10934253B2, “Therapeutic compounds and methods” (UNIVERSITY OF TASMANIA, priority 2017, dated 2021).

Experiments:
Type in all cases: cell-based
[1] = tested on: HepG2 cells; assay: Cell viability in the presence of a mitochondrial inhibitor (rotenone 10 μM); details: Homo sapiens, read-out: CELL VIABILITY [%]
Protocol: (§1) Cytoprotection of HepG2 cells by naphthoquinones was quantified in the presence of the mitochondrial toxin, rotenone. Briefly, HepG2 cells were seeded in 96-well plates at 5000 cells/well in DMEM with 0.3 g/l glucose, 10% FBS and Penicillin-Streptomycin-Glutamine. After overnight incubation under standard conditions, cells were treated with the test compounds (10 μM) for 2 days before cells were challenged with 1 μM rotenone in the presence of 10 μM test compounds in Hank's balanced salt solution (HBSS) for 6 hours. This was followed by post-incubation for an additional 18 hours with only 10 μM test compounds in HBSS. For measurement of cell viability, cells were washed with 100 μL PBS twice and then lysed using 40 μL lysis solution (4 mM EDTA, 0.2% Triton X-100) for 5 min at room temperature (RT) on an orbital shaker at 200 rpm. Then 10 μL of the lysate was mixed with 90 μL of enzyme-substrate mixture (as described above) in a white 96 well plate and luminescence was measured immediately using a plate-reader (Fluoroscan Ascent, Thermo Scientific). The data is expressed as % viability compared to the untreated (no-rotenone) control.
The cytoprotective effects of representative compounds of Formula (I) were further examined in vitro in response to rotenone toxicity at (10 μM). […] Cells were treated with the representative compounds of Formula (I) compounds (10 μM) for 2 days before cells were challenged with 10 μM rotenone.
Vitamin K, Menadione and Idebenone were used as comparative controls.

[2] = tested on: HepG2 cells; assay: Extracellular lactate levels, enzyme-linked colorimetric assay; details: HepG2 culture medium; for Extracellular lactate [% control]: 25 mM glucose, supernatant after 48 h, standardized to protein
Protocol: Lactate concentrations in culture medium were determined by an enzyme-linked colorimetric assay. Briefly, 150,000 HepG2 cells were seeded in normal growth media (DMEM, 10% FCS, Pen/Strep) in each well of a 6-well plate (Life Science, USA) and incubated for 24 h. The media was replaced with growth media containing (25 mM glucose,) with and without test compounds. Three untreated wells containing only cells were considered the experimental baseline control and all compounds were tested in three different wells simultaneously. Supernatants were collected after 48 h and transferred into 96-well format. After the addition of 90 μl of reaction buffer (10 mM KH2PO4 pH 7.8, 1 mg/ml BSA, 0.5 mM PMS, 2 mM EDTA, 0.6 mM DCPIP, 0.8 mM NAD+, 5 U/ml glutamate-pyruvate-transaminase, 1.5 mM glutamate, 12.5 U/ml lactate dehydrogenase) the plate was incubated at 30° C. inside a multimode plate reader (Multiscan Go, Thermo Scientific) and absorbance was measured at 600 nm over a period of 100 minutes. A standard curve was generated using media spiked with known lactate concentrations. Finally, protein levels were quantified and the lactate concentration of each well was standardized to its protein content and was then expressed as % of control.
The extent of lactate reduction in the cell culture media by the test compounds of the subject invention and the Comparative Compounds vitamin K, menadione and idebenone is shown below in Table 6.

[3] = tested on: HepG2 cells; assay: Acute ATP rescue assay (impaired mitochondrial function, rotenone); details: Homo sapiens, 1 h; HepG2; 1 μM quinones with rotenone 10 μM, 60 minutes, glucose-free DMEM; % ATP compared to untreated (no-rotenone) control
Protocol: HepG2 cells were seeded at a density of 5000 cells per well in a 96-well plate and incubated for 24 hours in DMEM with 0.3 g/l glucose, 10% FBS and Penicillin-Streptomycin-Glutamine. Cells were treated with 1 μM quinones in presence or absence of rotenone (10 μM), for 60 minutes in glucose-free DMEM ATP levels were quantified using luminescence from the ATP-dependent enzymatic oxidation of luciferin by luciferase. Cells were lysed in a volume of 40 μl (4 mM EDTA, 0.2% Triton X-100) for five minutes at room temperature (RT) on an orbital shaker at 200 rpm. […] Luminescence was quantified immediately using a multimode plate reader (Fluoroscan Ascent, Thermo Scientific). ATP levels were standardized to protein levels using a commercial BCA assay (Protein DC; BioRad) and changes were calculated as percentage relative to levels of DMSO-treated control cells. Data is expressed as % ATP compared to the untreated (no-rotenone) control.
Vitamin K, menadione and idebenone were used as comparative controls. DMSO was used as a control.

[4] = tested on: HepG2 cells; assay: Rescue of cell viability in the presence of a mitochondrial inhibitor (rotenone 1 μM); details: Homo sapiens, HepG2
Protocol: as §1
The extent of protection of cellular viability against a rotenone challenge of representative compounds of Formula (I) is shown below in Table 5. Vitamin K, Menadione and Idebenone were used as comparative controls. DMSO was used as a control.

SMILES	viability at 10 µM ([1]; HepG2, 48 h) [%]	activity at 1 µM [3] [%]	viability at 10 µM [4] [%]	other results
COC(=O)C(Cc1ccccc1)NC(=O)CCCC1=C(C)C(=O)c2ccccc2C1=O (stereo in doubt) [UTA #35, (R)-methyl-2(4-(3-methyl-1,4-naphthoquinone-2-yl)butamido)-3-phenylpropanoate]	76.2			
COC1=C(OC)C(=O)C(CCCCCCCCCCO)=C(C)C1=O [Idebenone, idebenone, reference compound]		81		Extracellular lactate [% control] [2]: 111.9 % control; Effect on lactate production (in words) ([2]; comment on the lactate table): increase lactate concentrations; viability at 10 µM ([4]; 10 μM test compound 2 days, 1 μM rotenone challenge 6 hours, 18 hours post-incubation, % of untreated (no-rotenone) control, read-out: Viability [%]): 66.2%; viability at 10 µM ([1]; 48 h, HepG2, compounds 10 uM for 2 days, then 10 μM rotenone challenge): 66.2%
CCCCC1=C(C)C(=O)c2ccccc2C1=O [UTA #19]				Extracellular lactate [% control] [2]: 65.3 % control
COc1ccc(CC2=C(C)C(=O)c3ccccc3C2=O)cc1OC [UTA #20]				Extracellular lactate [% control] [2]: 78.6 % control
CCCCCCCC1=C(C)C(=O)c2ccccc2C1=O [UTA #21]				Extracellular lactate [% control] [2]: 75.6 % control
CC1=C(CCC2CCCC2)C(=O)c2ccccc2C1=O [UTA #22]				Extracellular lactate [% control] [2]: 73 % control
CC1=C(CCC(C)O)C(=O)c2ccccc2C1=O (stereo not shown) [UTA #24]	72.8			
CC1=C(CCCC(=O)N2CCC[C@H]2C(=O)OC(C)(C)C)C(=O)c2ccccc2C1=O [UTA #42, (S)-tert-butyl-1-(4-(3-methyl-1,4-naphthoquinone-2-yl)butanoyl)pyrrolidine-2-carboxylate]	64.7			
CC1=C(CCCC(=O)N2CCC[C@H]2C(=O)O)C(=O)c2ccccc2C1=O [UTA #43, (S)-1-(4-(3-methyl-1,4-naphthoquinone-2-yl)butanoyl)pyrrolidine-2-carboxylic Acid]	92.7		92.7	
CC1=C(CCCC(=O)NCC(=O)OC(C)(C)C)C(=O)c2ccccc2C1=O [UTA #47]	74.4			
CC1=C(CCCC(=O)N[C@@H](CC(C)C)C(=O)O)C(=O)c2ccccc2C1=O [UTA #54]	98.7		98.7	Extracellular lactate [% control] [2]: 79.1 % control
CC1=C(CCCC(=O)N[C@@H](Cc2ccc(O)cc2)C(=O)OC(C)(C)C)C(=O)c2ccccc2C1=O [UTA #55]	78.6	94.8		
CC1=C(CCCC(=O)N2CCC[C@H]2CO)C(=O)c2ccccc2C1=O [UTA #61, (S)-2-(4-(2-(hydroxymethyl)pyrrolidin-1-yl)-4-oxobutyl)-3-methyl-1,4-naphthoquinone]	101		101	
CC1=C(CCCC(=O)N[C@H](CO)Cc2ccccc2)C(=O)c2ccccc2C1=O [UTA #62, (S)—N-(1-hydroxy-3-phenylpropan-2-yl)-4-(3-methyl-1,4-naphthyoquinone-2-yl)butanamide]	93.1	91.2	93.1	
CC1=C(CCC(=O)N[C@@H](Cc2ccccc2)C(=O)OC(C)(C)C)C(=O)c2ccccc2C1=O [UTA #65]	60.1	91.1		
CC1=C(CCC(=O)N[C@@H](Cc2ccccc2)C(=O)O)C(=O)c2ccccc2C1=O [UTA #66]	66.9			Extracellular lactate [% control] [2]: 66 % control
CC1=C(CCCCC(=O)O)C(=O)c2ccccc2C1=O [UTA #67, 25-(3-methyl-1,4-naphthoquinone-2-yl)pentanoic acid]	74.9	97.1		Extracellular lactate [% control] [2]: 67.6 % control
CC1=C(CCCCCC(=O)O)C(=O)c2ccccc2C1=O [UTA #70]	66.8	91.8		Extracellular lactate [% control] [2]: 73.3 % control
CC1=C(CCCCC(=O)N[C@@H](Cc2ccccc2)C(=O)OC(C)(C)C)C(=O)c2ccccc2C1=O [UTA #71]	70.5	92.2		

SMILES	viability at 10 µM ([1]; HepG2, 48 h) [%]	activity at 1 µM [3] [%]	viability at 10 µM [4] [%]	other results
CC1=C(CCCCC(=O)N[C@@H](Cc2ccccc2)C(=O)O)C(=O)c2ccccc2C1=O [UTA #72]	90.7	84.8	90.7	
CC1=C(CCCC(=O)NCCc2c[nH]c3ccccc23)C(=O)c2ccccc2C1=O [UTA #73, N-(2-(1H-indol-3-yl)ethyl)-4-(3-methyl-1,4-naphthoquinone-2-yl)butanamide]	86.2	96.1	86.2	
CC1=C(CCCC(=O)NCCc2ccc(O)cc2)C(=O)c2ccccc2C1=O [UTA #74, N-(4-hydroxyphenethyl)-4-(3-methyl-1,4-naphthoquinone-2-yl)butanamide]	91.7	101	91.7	
CC1=C(CCCCCC(=O)N[C@@H](Cc2ccccc2)C(=O)OC(C)(C)C)C(=O)c2ccccc2C1=O [UTA #75]	61.4	95.4		
CC1=C(CCCCCC(=O)N[C@@H](Cc2ccccc2)C(=O)O)C(=O)c2ccccc2C1=O [UTA #76]	68.1			
CC1=C(CCCC(=O)N[C@@H](CO)Cc2ccccc2)C(=O)c2ccccc2C1=O [UTA #78]	80			
CC1=C(CCCC(=O)N[C@@H](CO)c2ccccc2)C(=O)c2ccccc2C1=O [UTA #80]	87.6		87.6	
CC1=C(CCCC(=O)N[C@H](CO)c2ccccc2)C(=O)c2ccccc2C1=O [UTA #81]	83.8		83.8	
CC1=C(CCCCCC(=O)N[C@H](CO)Cc2ccccc2)C(=O)c2ccccc2C1=O [UTA #84]	74.4	90.4		
CC1=C(CCCCC(=O)NCCc2ccc(O)cc2)C(=O)c2ccccc2C1=O [UTA #88]	91.8		91.8	
CC1=C(CCCCCC(=O)NCCc2ccc(O)cc2)C(=O)c2ccccc2C1=O [UTA #89]	85.2		85.2	
CCCCNC(=O)CCCC1=C(C)C(=O)c2ccccc2C1=O [UTA #91]	82		82	
COC(=O)[C@@H]1C[C@@H](O)CN1C(=O)CCCC1=C(C)C(=O)c2ccccc2C1=O [UTA #93]	74.4			
CC1=C(CCCC(=O)N[C@H](Cc2ccccc2)C(=O)O)C(=O)c2ccccc2C1=O [UTA #94]	71.7			
COC(=O)[C@@H](NC(=O)CCCC1=C(C)C(=O)c2ccccc2C1=O)c1ccccc1 [UTA #95]	86.1		86.1	
COC(=O)[C@H](NC(=O)CCCC1=C(C)C(=O)c2ccccc2C1=O)c1ccccc1 [UTA #97]	84.8		84.8	
O=C(CCCC1=CC(=O)c2ccccc2C1=O)NCCc1ccc(O)cc1 [UTA #113]	73.4			
O=C(CCCC1=CC(=O)c2ccccc2C1=O)N[C@H](CO)Cc1ccccc1 [UTA #115]	80.8		80.8	
O=C(CCCC1=CC(=O)c2ccccc2C1=O)N[C@@H](Cc1ccccc1)C(=O)O [UTA #117]	80.3		80.3	
